Experiments:
[1] = In vivo pharmacokinetics and tissue distribution; set-up: species or system mouse; settings: 25 mg/kg i.p.
Procedure: A41 was administrated intraperitoneally (25 mg/kg, aqueous solution of A41 in 5% DMSO, 50% PEG) in 2 months old C57Bl/6 after 4 h of fasting. After 5, 30, 60, 120 and 360 minutes following injection, mice (n = 3 per kinetic time) were sacrificed and tissues (blood, heart, lung, liver, kidney and brain) were collected. Control mice (n = 5) were used to get blank tissues for mass spectrometry analyses. Blood was collected by cardiac puncture into tubes containing 10% EDTA. Immediately after blood collection, plasma was separated by centrifugation for 5 min at 4 °C (2,000 × g). Solid tissues were rapidly excised and snap frozen in liquid nitrogen before to be disrupted and homogenized in PBS (1/10; wt/vol) using TissueLyser II (Quiagen). A41 concentrations were determined in mouse plasma and tissues by liquid chromatography-tandem mass spectrometry (LC-MS/MS). All solvents were LC-MS grade and purchased from Biosolve (Valkenswaard, Netherlands). A41 10× standard solutions were prepared and serially diluted in acetonitrile to obtain 8 standard solutions ranging 10-20,000 nmol/L. A41 10X standard solutions (5 μL or 20 μL) were added to blank plasma (45 μL) or blank tissue homogenates (180 μL), respectively, to get final concentrations ranging 1-2,000 nmol/L. Acetonitrile (5 μL or 20 μL) was added to plasma (45 μL) or tissue samples (180 μL). Tissue homogenates (standards and samples) were then centrifugated for 5 min at 5,000 × g for 5 min at 10 °C and supernatants (100 μL) were collected. Proteins were precipitated by the addition of 150 μL or 300 μL of acetonitrile containing labeled D3-A41 as internal standard (200 nmol/L) in all plasma (50 μL) and tissue supernatants (100 μL), respectively. After centrifugation (17,000 × g, 10 min, 10 °C), supernatants were collected and dried under a gentle stream of nitrogen. Dried samples were finally reconstituted with 25% acetonitrile containing 0.1% formic acid (100 μL), and injected into the LC-MS/MS system. Analyses were performed on a Xevo® TQD mass spectrometer with an electrospray (ESI) interface and an Acquity H-Class® UPLC™ device (Waters Corporation, Milford, MA, USA). Samples (10 μL) were injected onto a BEH C18 column (1.7 μm; 2.1 × 50 mm, Waters Corporation) held at 60 °C, and compounds were separated with a linear gradient of mobile phase B (acetonitrile, 0.1% formic acid) in mobile phase A (water, 0.1% formic acid) at a flow rate of 500 μL/min. […] A41 and its internal standard d3-A41 were then detected by the mass spectrometer with the ESI interface operating in the positive ion mode (capillary voltage, 3 kV; desolvatation gas (N2) flow and temperature, 900 L/h and 450 °C; source temperature, 120 °C). The multiple reaction monitoring mode was applied for MS/MS detection at the following mass-to-charge (m/z) ratio transitions: 487.1 → 153.0 and 490.2 → 156.0 for A41 and d3-A41, respectively. Cone voltage and collision energy were set at 35 V and 20 eV, respectively. Data acquisition and processing were achieved using MassLynx® and TargetLynx® softwares (version 4.1, Waters Corporation). Chromatographic peak area ratios between A41 and its internal standard constituted the detector responses. Standard solutions were used to plot calibration curves for quantification and dilution factors related to biological matrix preparations were included in calculation. The linearity was expressed by the mean r^2 which was greater than 0.995 for all matrices (linear regression, 1/x weighting, origin excluded). AUC0-6h was calculated as follow: AUC0−6h=∫06hC0e^−Ktdt=C0/K Where K = constant of elimination, and […].
Supplementary Fig. 7: A41 pharmacokinetics. (a) Molecule distribution in plasma and indicatedorgans afterintraperitonealinjectionof A41 (25 mg/kg) in mice(N=3 mice/kinetictimepoint). (b) Pharmacokinetic parametersof A41 calculated in mice after a singleintraperitonealinjection(25mg/kg). AUC = Area Under the Concentration-time curve.

Cyclooxygenase COX-2 = Cyclooxygenase COX-2 (Homo sapiens, UniProt P35354); test: Safety screen; type: biochemical
Procedure: (§1) Blood cell counts, kinase profiler, safety screen, bacterial cytotoxicity, Ames, micronucleus assays were performed by the company Eurofins (France). The kinase profiler was performed by the company Eurofins (Discovery, Panlab and Cerep).

[2] = system: Glutamate, NMDA, Polyamine; test: Safety screen; type: binding, rat
Procedure: as §1

Opiate µ(OP3, MOP) = Opiate µ(OP3, MOP) (Homo sapiens, UniProt P35372); test: Safety screen; type: binding
Procedure: as §1

Abl (Q252H) (h) = Abl (Q252H) (h) (Homo sapiens, UniProt P00519, Q252H); test: Kinase Profiler; type: biochemical
Procedure: (§2) The kinase profiler was performed by the company Eurofins (Discovery, Panlab and Cerep).

CDK1/cyclinB(h) = CDK1/cyclinB(h) (Homo sapiens, UniProt P06493); test: Kinase Profiler; type: biochemical
Procedure: as §1

CDK2/cyclinA(h) = CDK2/cyclinA(h) (Homo sapiens, UniProt P24941); test: Kinase Profiler; type: biochemical
Procedure: as §1

cKit(D816H)(h) = cKit(D816H)(h) (Homo sapiens, UniProt P10721, D816H); test: Kinase Profiler; type: biochemical
Procedure: as §1

HIPK1(h) = HIPK1(h) (Homo sapiens, UniProt Q86Z02); test: Kinase Profiler; type: biochemical
Procedure: as §2

PDGFRα(D842V)(h) = PDGFRα(D842V)(h) (Homo sapiens, UniProt P16234, D842V); test: Kinase Profiler; type: biochemical
Procedure: as §2

ROCK-II(r) = ROCK-II(r) (Rattus norvegicus, UniProt Q62868); test: Kinase Profiler; type: biochemical
Procedure: as §1

SNRK(h) = SNRK(h) (Homo sapiens, UniProt Q9NRH2); test: Kinase Profiler; type: biochemical
Procedure: as §2

SRPK1(h) = SRPK1(h) (Homo sapiens, UniProt Q96SB4); test: Kinase Profiler; type: biochemical
Procedure: as §2

STK32C(h) = STK32C(h) (Homo sapiens, UniProt Q86UX6); test: Kinase Profiler; type: biochemical
Procedure: as §2

TSSK1(h) = TSSK1(h) (Homo sapiens, UniProt Q9BXA7); test: Kinase Profiler; type: biochemical
Procedure: as §2

Yes(h) = Yes(h) (Homo sapiens, UniProt P07947); test: Kinase Profiler; type: biochemical
Procedure: as §2

DNA-PK(h) = DNA-PK(h) (Homo sapiens, UniProt P78527); test: Kinase Profiler; type: biochemical
Procedure: as §2

Sequence of Cyclooxygenase COX-2 (P35354 18-604): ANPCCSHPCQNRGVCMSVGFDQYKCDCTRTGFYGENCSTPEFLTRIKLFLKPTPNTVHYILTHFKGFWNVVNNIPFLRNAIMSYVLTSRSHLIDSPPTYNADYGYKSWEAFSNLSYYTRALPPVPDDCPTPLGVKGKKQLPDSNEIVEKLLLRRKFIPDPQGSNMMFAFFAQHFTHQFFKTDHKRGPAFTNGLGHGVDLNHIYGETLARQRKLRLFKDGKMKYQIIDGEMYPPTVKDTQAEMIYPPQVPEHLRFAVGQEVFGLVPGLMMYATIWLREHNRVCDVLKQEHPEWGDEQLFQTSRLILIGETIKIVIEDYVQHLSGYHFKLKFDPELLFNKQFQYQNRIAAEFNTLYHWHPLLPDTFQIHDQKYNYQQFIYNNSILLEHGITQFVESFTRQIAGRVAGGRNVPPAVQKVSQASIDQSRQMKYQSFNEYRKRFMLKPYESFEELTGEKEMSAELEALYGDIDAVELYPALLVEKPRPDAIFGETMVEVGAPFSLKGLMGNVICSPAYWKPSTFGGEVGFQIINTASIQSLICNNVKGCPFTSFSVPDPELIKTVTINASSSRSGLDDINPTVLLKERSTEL
Sequence of Yes(h) (P07947 whole entry): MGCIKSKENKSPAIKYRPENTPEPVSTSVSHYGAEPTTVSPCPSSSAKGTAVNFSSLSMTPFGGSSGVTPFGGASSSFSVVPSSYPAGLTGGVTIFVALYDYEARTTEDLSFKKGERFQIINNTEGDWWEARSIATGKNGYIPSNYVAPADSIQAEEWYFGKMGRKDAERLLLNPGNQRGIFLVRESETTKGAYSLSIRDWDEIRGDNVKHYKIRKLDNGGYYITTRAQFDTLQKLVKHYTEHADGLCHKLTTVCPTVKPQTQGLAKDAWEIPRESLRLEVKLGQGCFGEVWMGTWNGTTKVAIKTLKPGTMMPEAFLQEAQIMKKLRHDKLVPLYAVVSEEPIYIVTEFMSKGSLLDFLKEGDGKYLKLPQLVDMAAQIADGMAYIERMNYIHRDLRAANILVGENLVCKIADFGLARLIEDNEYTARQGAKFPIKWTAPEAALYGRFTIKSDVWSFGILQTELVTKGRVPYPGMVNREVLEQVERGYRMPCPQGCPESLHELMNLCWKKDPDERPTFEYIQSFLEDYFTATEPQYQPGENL
Sequence of SRPK1(h) (Q96SB4 whole entry): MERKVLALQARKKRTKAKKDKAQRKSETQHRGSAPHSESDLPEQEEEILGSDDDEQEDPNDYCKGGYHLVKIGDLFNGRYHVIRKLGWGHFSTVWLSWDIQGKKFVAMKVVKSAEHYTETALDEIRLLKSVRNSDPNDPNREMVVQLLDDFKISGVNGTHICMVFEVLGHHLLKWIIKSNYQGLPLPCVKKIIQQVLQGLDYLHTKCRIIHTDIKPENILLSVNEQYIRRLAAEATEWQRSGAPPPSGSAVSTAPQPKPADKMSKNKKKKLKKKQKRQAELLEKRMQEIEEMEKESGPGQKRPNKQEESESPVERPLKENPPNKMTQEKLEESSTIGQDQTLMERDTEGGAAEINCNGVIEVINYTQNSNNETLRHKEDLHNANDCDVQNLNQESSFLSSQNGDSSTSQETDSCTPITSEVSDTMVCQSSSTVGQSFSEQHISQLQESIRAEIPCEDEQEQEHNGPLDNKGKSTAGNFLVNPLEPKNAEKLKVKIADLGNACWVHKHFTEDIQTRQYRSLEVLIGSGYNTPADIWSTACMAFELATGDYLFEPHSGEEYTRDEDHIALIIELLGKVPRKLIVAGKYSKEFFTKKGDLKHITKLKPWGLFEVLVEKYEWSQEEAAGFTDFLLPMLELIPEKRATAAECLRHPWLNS
Sequence of ROCK-II(r) (Q62868 2-543 limits assumed): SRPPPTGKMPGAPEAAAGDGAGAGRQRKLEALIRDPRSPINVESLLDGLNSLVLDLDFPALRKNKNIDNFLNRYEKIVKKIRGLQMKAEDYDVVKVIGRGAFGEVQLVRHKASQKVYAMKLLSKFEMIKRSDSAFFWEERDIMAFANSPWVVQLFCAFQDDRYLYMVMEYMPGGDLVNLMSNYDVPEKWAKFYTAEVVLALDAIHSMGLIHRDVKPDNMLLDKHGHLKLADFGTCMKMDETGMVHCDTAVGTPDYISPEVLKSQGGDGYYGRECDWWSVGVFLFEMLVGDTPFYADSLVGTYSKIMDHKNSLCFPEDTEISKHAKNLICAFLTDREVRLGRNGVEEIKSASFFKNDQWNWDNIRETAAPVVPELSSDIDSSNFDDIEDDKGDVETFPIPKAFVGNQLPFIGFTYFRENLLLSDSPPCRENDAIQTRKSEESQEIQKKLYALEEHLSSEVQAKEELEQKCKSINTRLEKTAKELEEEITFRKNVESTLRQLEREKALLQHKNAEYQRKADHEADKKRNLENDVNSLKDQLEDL
Sequence of Opiate µ(OP3, MOP) (P35372 whole entry): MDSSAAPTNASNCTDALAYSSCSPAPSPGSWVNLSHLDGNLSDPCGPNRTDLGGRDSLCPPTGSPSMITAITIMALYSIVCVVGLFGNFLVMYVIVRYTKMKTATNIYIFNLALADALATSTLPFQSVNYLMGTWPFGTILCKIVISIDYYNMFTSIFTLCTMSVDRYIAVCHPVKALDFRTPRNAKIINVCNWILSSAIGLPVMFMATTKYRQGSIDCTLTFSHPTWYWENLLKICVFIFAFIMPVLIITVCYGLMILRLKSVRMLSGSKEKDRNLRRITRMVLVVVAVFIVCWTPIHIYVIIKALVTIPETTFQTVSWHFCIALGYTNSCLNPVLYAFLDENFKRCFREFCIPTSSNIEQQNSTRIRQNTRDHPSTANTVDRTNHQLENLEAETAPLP
Sequence of SNRK(h) (Q9NRH2 whole entry): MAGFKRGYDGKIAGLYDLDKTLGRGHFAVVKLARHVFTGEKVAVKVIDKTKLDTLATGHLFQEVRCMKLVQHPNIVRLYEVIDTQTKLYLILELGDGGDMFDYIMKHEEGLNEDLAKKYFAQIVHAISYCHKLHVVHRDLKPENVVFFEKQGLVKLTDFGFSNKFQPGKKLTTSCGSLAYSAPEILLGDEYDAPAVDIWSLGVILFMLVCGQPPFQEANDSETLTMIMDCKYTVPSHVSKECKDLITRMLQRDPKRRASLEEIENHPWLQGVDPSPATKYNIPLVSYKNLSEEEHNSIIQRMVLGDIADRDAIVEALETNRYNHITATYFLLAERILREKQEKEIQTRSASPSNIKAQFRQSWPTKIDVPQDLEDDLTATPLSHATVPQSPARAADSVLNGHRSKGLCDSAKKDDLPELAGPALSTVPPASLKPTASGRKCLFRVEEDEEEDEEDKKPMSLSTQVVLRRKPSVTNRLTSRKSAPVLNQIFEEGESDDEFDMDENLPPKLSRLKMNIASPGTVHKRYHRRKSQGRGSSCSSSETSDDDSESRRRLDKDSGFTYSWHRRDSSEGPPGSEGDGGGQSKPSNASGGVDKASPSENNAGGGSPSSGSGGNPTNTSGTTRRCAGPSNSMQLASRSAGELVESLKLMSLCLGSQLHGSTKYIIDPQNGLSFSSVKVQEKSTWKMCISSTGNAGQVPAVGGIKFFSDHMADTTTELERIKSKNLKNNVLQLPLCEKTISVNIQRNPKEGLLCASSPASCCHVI
Sequence of STK32C(h) (Q86UX6 whole entry): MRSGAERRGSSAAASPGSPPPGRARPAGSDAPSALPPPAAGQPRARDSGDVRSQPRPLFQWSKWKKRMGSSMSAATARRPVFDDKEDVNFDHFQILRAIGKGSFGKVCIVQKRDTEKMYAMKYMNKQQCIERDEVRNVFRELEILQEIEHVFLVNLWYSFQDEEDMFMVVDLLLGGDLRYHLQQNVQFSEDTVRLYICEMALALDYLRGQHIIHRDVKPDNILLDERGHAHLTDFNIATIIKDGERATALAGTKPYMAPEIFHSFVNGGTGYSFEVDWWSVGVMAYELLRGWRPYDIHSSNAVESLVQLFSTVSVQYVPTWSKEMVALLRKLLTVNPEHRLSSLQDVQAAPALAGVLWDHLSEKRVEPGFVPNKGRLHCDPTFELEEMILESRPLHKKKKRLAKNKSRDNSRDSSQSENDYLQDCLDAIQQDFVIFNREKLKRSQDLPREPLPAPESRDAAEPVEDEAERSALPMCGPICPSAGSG
Sequence of CDK1/cyclinB(h) (P06493 whole entry): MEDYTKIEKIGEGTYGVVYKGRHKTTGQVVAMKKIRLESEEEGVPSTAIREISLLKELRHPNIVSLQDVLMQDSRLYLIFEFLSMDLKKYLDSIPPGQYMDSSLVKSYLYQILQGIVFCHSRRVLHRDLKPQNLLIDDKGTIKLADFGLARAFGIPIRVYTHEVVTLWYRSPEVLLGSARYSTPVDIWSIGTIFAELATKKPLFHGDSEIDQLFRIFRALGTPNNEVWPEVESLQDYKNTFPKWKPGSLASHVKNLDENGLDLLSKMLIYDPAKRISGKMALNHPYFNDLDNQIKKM
Sequence of CDK1/cyclinB(h) (P14635 whole entry partner): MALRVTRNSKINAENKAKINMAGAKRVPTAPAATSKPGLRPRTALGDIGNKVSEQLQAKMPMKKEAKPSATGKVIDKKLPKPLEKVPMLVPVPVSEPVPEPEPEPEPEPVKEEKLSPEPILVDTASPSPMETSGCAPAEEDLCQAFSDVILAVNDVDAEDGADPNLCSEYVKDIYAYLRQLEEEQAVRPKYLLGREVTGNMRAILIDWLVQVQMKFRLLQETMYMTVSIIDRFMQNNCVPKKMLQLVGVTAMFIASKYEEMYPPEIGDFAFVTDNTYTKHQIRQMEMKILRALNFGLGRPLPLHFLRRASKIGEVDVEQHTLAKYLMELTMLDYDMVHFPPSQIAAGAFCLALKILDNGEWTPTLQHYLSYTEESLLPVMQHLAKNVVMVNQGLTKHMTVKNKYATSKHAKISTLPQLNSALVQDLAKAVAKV

COc1ccc(OC)c(NS(=O)(=O)c2ccc(NC(=O)CCSc3ccc(C)cc3)cc2)c1 [Compound A41]
C0 [1]: 4335 ng/mL
blood-brain barrier crossing [1]: could not cross the blood-brain barrier
t ½ [1]: 1.6294 h
time over which plasma concentration declined [1]: 2 to 3 h
tissue concentration, brain [1]: extremely low concentration
tissue concentration, kidney [1]: highest concentration
tissue distribution, liver, heart, and lungs [1]: detected
AUC0-6h ([1]; parameter list): 14.3 µg·h/mL
AUC0-6h ([1]; plasma): 14.3 (µg/ mL)xh
Cmax (peak plasma concentration) ([1]; plasma): 15056 ± 500 ng/mL
% inh. (Cyclooxygenase COX-2): 11%
% inh. [2]: 19%
% inh. (Opiate µ(OP3, MOP)): 14%
Activity(%) (Abl (Q252H) (h)): 105%
Activity(%) (CDK1/cyclinB(h)): 96%
Activity(%) (CDK2/cyclinA(h)): 97%
Activity(%) (cKit(D816H)(h)): 109%
Activity(%) (HIPK1(h)): 110%
Activity(%) (PDGFRα(D842V)(h)): 112%
Activity(%) (ROCK-II(r)): 110%
Activity(%) (SNRK(h)): 123%
Activity(%) (SRPK1(h)): 114%
Activity(%) (STK32C(h)): 105%
Activity(%) (TSSK1(h)): 103%
Activity(%) (Yes(h)): 110%
Activity(%) (DNA-PK(h)): 122%

Source: PMC12281424, “A Rac-specific competitive inhibitor of guanine nucleotide binding reduces metastasis in triple-negative breast cancer” (Cell Reports Medicine, 2025)
